Tested on: Enterococcus faecalis (American Type Culture Collection No. 33186)
Assay: Antimicrobial (preservation) challenge test, count of surviving microorganisms in the inoculated product
Method: Bacterium: Enterococcus faecalis (American Type Culture Collection No. 33186), cultured on soybean Trypticase Yeast: Candida albicans (American Type Culture Collection No. 10231), cultured on Sabouraud.
Inoculum preparation: tryptone-salt diluent
Counting: Eugon LT100 agar broth
On the evening before the test, each microbial strain is plated out on the appropriate agar medium and incubated in an oven at 35° C.
On the day of the test, 20 grams of the product are weighed out in a sterile pill box. Inoculation is carried out at a concentration of 1% using a microbial suspension with a titre of 108 microorganisms per ml: a concentration of 106 is obtained in the product. The contaminated sample is incubated in an oven at 22° C.
After incubation for 7 days, 1 gram of product is taken and tenfold dilutions are carried out in Eugon LT100 broth, and these dilutions are plated out on the surface of Petri dishes containing Eugon LT100 agar. The dishes are incubated at 35° C.
The colonies are counted on the dishes containing more than 20 and less than 200 colonies.

| SMILES | number of microorganisms per gram of preparation, remaining in the product after 7 days of contact (Table 5, single agent at 3%) | also measured |
| --- | --- | --- |
| CCCCCCC(O)CO (stereo not shown) [Octanediol, 1,2-octanediol] |  | number of microorganisms per gram of preparation, remaining in the product after 7 days of contact (Table 5, single agent at 0.25%): 3.7 × 10^5 microorganisms per gram of preparation |
| CC(O)CCO (stereo not shown) [Butanediol, butanediol] | 4.0 × 10^5 microorganisms per gram of preparation |  |
| CCCCCCCC(=O)OC(C)C(=O)OC(C)C(=O)[O-].[Na+] (stereo not shown) [Sodium capryl lactyl lactylate, sodium capryl lactyl lactylate] |  | number of microorganisms per gram of preparation, remaining in the product after 7 days of contact (Table 5, single agent at 1%): 1.5 × 10^4 microorganisms per gram of preparation |
| CCCC(O)CO (stereo not shown) [pentanediol, 1,2-pentanediol] | 2.3 × 10^5 microorganisms per gram of preparation |  |

— patent publication US20020098211A1, “ANTIMICROBIAL AGENT AND USES THEREOF, IN PARTICULAR IN COSMETICS AND DERMATOLOGY” (priority 1998, published 2002)
